Reference: patent publication US7932270B2 (Cytokinetics, Inc., priority 2006, dated 2011)

Target: T1, chicken gizzard smooth muscle myosin subfragment-1 chemically crosslinked to cardiac or skeletal actin (Gallus gallus, UniProt P10587)
T1 construct: chicken gizzard smooth muscle myosin subfragment-1; from tissue; host or cells: chicken gizzard
Assay: Smooth muscle myosin ATPase dose response assay (pyruvate kinase/horseradish peroxidase/pyruvate oxidase-coupled, amplex red fluorescence)
Assay type: biochemical
Details: read-out: IC50 Arithmetic Mean
How it was run: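 EDC/NHS-crosslinked S1–actin, amount set per prep by rate titration. Buffer: 12 mM K-PIPES pH 7.00 (22° C), 100 mM KCl, 2 mM MgCl2, 0.15 mM ATP, 0.1 mM PEP, 2 mM KPi, 0.1 mM amplex red. Read ex 480/em 615 nm; IC50 = midpoint, 4-param Hill fit.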

T1 sequence (P02607 2-151): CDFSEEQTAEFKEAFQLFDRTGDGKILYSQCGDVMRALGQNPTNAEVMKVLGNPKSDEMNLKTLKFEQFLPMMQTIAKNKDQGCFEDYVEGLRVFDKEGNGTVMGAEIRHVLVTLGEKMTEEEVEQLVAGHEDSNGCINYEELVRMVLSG
T1 sequence (P10587 84-789): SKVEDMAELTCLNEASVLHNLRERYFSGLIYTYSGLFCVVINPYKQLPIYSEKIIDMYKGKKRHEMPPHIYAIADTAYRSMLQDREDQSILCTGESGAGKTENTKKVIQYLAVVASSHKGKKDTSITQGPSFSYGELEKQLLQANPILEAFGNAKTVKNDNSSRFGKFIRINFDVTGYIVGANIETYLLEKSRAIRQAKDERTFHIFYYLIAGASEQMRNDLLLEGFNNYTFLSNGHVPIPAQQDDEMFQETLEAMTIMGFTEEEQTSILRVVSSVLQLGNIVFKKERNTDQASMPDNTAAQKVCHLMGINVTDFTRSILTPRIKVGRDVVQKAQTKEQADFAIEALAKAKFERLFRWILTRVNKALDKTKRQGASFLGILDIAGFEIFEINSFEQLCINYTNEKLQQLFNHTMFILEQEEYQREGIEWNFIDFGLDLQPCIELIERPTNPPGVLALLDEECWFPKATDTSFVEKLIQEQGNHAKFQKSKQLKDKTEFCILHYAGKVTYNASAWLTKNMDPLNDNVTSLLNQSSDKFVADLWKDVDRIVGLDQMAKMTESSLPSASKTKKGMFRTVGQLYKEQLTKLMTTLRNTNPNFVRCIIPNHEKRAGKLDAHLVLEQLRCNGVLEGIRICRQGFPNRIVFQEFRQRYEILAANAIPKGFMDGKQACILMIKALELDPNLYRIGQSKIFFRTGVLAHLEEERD

Compound: NCCCC(=O)N1CCC[C@@H]1CNC(=O)c1cc(F)c(-c2cn[nH]c2)nc1NCCc1cccc(F)c1 [N-{[(2R)-1-(4-aminobutanoyl)pyrrolidin-2-yl]methyl}(5-fluoro-2-{[2-(3-fluorophenyl)ethyl]amino}-6-pyrazol-4-yl(3-pyridyl))carboxamide]
- IC50: 47 nM

Compound: N#Cc1ccccc1-c1ccc(C(=O)NC(CCN)C(N)=O)c(NCCc2cccc(F)c2)n1 (centres unmarked) [N-(3-amino-1-carbamoylpropyl)(6-(2-cyanophenyl)-2-{[2-(3-fluorophenyl)ethyl]amino}(3-pyridyl))carboxamide]
- IC50: 1910 nM

Compound: Cc1csc(-c2ccc(C(=O)NCc3cccnc3)c(NCCc3cc(F)cc(F)c3)n2)c1 [(2-{[2-(3,5-difluorophenyl)ethyl]amino}-6-(4-methyl(2-thienyl))(3-pyridyl))-N-(3-pyridylmethyl)carboxamide]
- IC50: 119 nM

Compound: O=C(NCc1cccnc1)c1ccc(-c2cccs2)nc1NCCc1ccccn1 [{2-[(2-(2-pyridyl)ethyl)amino]-6-(2-thienyl)(3-pyridyl)}-N-(3-pyridylmethyl)carboxamide]
- IC50: 797 nM

Compound: O=Cc1cc(-c2ccc(C(=O)NCc3cccnc3)c(NCCc3cccc(F)c3)n2)cs1 [(2-{[2-(3-fluorophenyl)ethyl]amino}-6-(5-formyl(3-thienyl))(3-pyridyl))-N-(3-pyridylmethyl)carboxamide]
- IC50: 98 nM
